{"source": "patent US11596692B1", "about": "(Incyte Corporation, priority 2018, dated 2023)", "key": {"[1]": {"test_system": "IRF3 activation in PD-L1 high HEK293T STING reporter cell line", "assay": "IRF3 activation in HEK293T STING reporter cells, high PD-L1", "assay_type": "cell-based, human", "conditions": "high PD-L1 cells, 20 hours; read-out: IRF Activation EC50 (nM), High PD-L1", "protocol": "(§1) HEK293T STING reporter cell line was purchased from Invivogen and expressed low level of PD-L1. This cell line was then engineered at Incyte Research Institute to overexpress human PD-L1. Both PD-L1 high and PD-L1 low HEK293T cell lines were plated at 100,000 cells/100 μL/well in 10% fetal calf serum-containing DMEM culture medium in a 96-well flat bottom plate. Serial dilutions of PD-L1 small molecule-conjugated STING agonists were then added to the corresponding wells, and incubated for 20 hours at 37° C. In a competition study setting, 1 μM of a PD-L1 small molecule was added in the corresponding wells to compete with the binding of PD-L1 small molecule-conjugated STING agonists. At the end of the incubation, the culture supernatants were carefully removed from each well, and the amount of IRF3 activation was determined by adding Quanti-Blue substrate in accordance with the manufacturer's protocol.\n(§2) 293T-Dual hSTING-R232 (ISG/KI-IFNb) cells that were generated from 293T-Dual Null (ISG/KI-IFNb) cells by stable transfection of the R232 isoform of human STING were purchased from Invivogen (Invivogen #293d-r232).\n(§3) This cell line expresses an ISRE-inducible SEAP (secreted embryonic alkaline phosphatase) reporter construct, which monitors the activation of interferon regulatory factor (IRF) and its binding to ISRE (IFN-stimulated response elements). These reporter cells express low level of PD-L1. Human PD-L1 was then overexpressed in these cells through stable transfection.\n(§4) These 293T-Dual hSTING-R232 reporter cells as well as293T-Dual hSTING-R232 reporter cells overexpressing huPD-L1 were treated with various concentrations of STING compounds for 20 hours. After 20 hours, interferon regulatory factor (IRF) activity was assessed by measuring SEAP levels in the supernatant using QUNTI-Blue. EC50 values were generated by curve fit in Prism software."}, "[2]": {"test_system": "IRF3 activation in PD-L1 low HEK293T STING reporter cell line", "assay": "IRF3 activation in HEK293T STING reporter cells, low PD-L1", "assay_type": "cell-based, human", "conditions": "20 hours, read-out: IRF Activation EC50 (nM), Low PD-L1", "protocol": "as §1, §2, §3, §4"}, "[3]": {"target": "PD-L1 (Homo sapiens (Human), UniProt Q9NZQ7)", "sequence (Q9NZQ7 19-290)": "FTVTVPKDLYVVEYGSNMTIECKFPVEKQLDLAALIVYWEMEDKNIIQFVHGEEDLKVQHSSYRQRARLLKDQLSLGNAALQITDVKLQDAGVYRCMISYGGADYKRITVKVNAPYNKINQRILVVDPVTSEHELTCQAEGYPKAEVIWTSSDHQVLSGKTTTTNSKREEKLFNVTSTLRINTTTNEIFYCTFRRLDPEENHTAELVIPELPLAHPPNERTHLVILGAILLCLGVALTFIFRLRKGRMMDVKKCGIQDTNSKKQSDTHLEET", "assay": "PD-L1 surface levels on HEK293T STING reporter cells, high PD-L1", "assay_type": "cell-based", "protocol": "To determine PD-L1 expression on HEK cells after treatment of PD-L1-small molecule conjugated STING agonists, cells were harvested at 20 hours post-treatment. Single cell suspensions were then stained with phycoerythrin-conjugated anti-PD-L1 antibody (BD Bioscience), and the PD-L1 expression were then analyzed by flow cytometry. Mean fluorescence intensity was used as the relative level of surface PD-L1 expression on cells (FIG. 1 and Table 6).\nAlso, cells were stained with PE-conjugated anti-human PD-L1 antibody to determine surface PD-L1 expression. Cell acquisition was performed on BD LSRFortessa X-20 (BD Biosciences). Data was analyzed using FlowJo software. IC50 values were calculated using Prism Software."}}, "note": "Read-outs that look alike come from different tables or passages of the source.", "data": [{"smiles": "CCn1nc(C)cc1C(=O)Nc1nc2cc(C(N)=O)cc(OC)c2n1C/C=C/Cn1c(NC(=O)c2cc(C)nn2CC)nc2cc(C(N)=O)cc(OCCCNC(=O)[C@H](CC(=O)O)NC(=O)[C@H](CC(=O)O)NC(=O)CCCN3CCc4c(nc(C(=O)Nc5cccc(-c6cccc(NC(=O)c7nc8c(n7C)CCN(CCCC(=O)O)C8)c6Cl)c5Cl)n4C)C3)c21", "note": "[Example 10]", "values": [{"measurement": "EC50", "setting": "[1]", "result": "< 50", "unit": "nM"}, {"measurement": "EC50", "setting": "[2]", "result": "50 to 200", "unit": "nM"}, {"measurement": "IC50", "setting": "[3]; high PD-L1 cells, 20 hours, read-out: PD-L1 Internalization IC50 (nM), High PD-L1", "result": "< 50", "unit": "nM"}]}, {"smiles": "CCn1nc(C)cc1C(=O)Nc1nc2cc(C(N)=O)cc(OC)c2n1C/C=C/Cn1c(NC(=O)c2cc(C)nn2CC)nc2cc(C(N)=O)cc(OCCCNC(=O)[C@H](CC(=O)O)NC(=O)[C@H](CC(=O)O)NC(=O)[C@H](CC(=O)O)NC(=O)[C@H](CC(=O)O)NC(=O)[C@H](CC(=O)O)NC(=O)CCCN3CCc4c(nc(C(=O)Nc5cccc(-c6cccc(NC(=O)c7nc8c(n7C)CCN(CCCC(=O)O)C8)c6Cl)c5Cl)n4C)C3)c21", "note": "[Example 13]", "values": [{"measurement": "EC50", "setting": "[1]", "result": "< 50", "unit": "nM"}, {"measurement": "EC50", "setting": "[2]", "result": "50 to 200", "unit": "nM"}, {"measurement": "IC50", "setting": "[3]", "result": "< 50", "unit": "nM"}]}, {"smiles": "CCn1nc(C)cc1C(=O)Nc1nc2cc(C(N)=O)cc(OC)c2n1C/C=C/Cn1c(NC(=O)c2cc(C)nn2CC)nc2cc(C(N)=O)cc(OCCCNC(=O)[C@H](CC(=O)O)NC(=O)[C@H](CC(=O)O)NC(=O)[C@H](CC(=O)O)NC(=O)[C@H](CC(=O)O)NC(=O)[C@H](CC(=O)O)NC(=O)[C@H](CC(=O)O)NC(=O)[C@H](CC(=O)O)NC(=O)CCCN3CCc4c(nc(C(=O)Nc5cccc(-c6cccc(NC(=O)c7nc8c(n7C)CCN(CCCC(=O)O)C8)c6Cl)c5Cl)n4C)C3)c21", "note": "[Example 14]", "values": [{"measurement": "EC50", "setting": "[1]", "result": "< 50", "unit": "nM"}, {"measurement": "EC50", "setting": "[2]", "result": "50 to 200", "unit": "nM"}, {"measurement": "IC50", "setting": "[3]", "result": "< 50", "unit": "nM"}]}, {"smiles": "CCn1nc(C)cc1C(=O)Nc1nc2cc(C(N)=O)cc(OC)c2n1C/C=C/Cn1c(NC(=O)c2cc(C)nn2CC)nc2cc(C(N)=O)cc(OCCCNC(=O)[C@H](CC(=O)O)NC(=O)[C@H](CC(=O)O)NC(=O)[C@H](CCCNC(=N)N)NC(=O)[C@H](CC(=O)O)NC(=O)[C@H](CC(=O)O)NC(=O)[C@H](CC(=O)O)NC(=O)[C@H](CCCNC(=N)N)NC(=O)[C@H](CC(=O)O)NC(=O)CCCN3CCc4c(nc(C(=O)Nc5cccc(-c6cccc(NC(=O)c7nc8c(n7C)CCN(CCCC(=O)O)C8)c6Cl)c5Cl)n4C)C3)c21", "note": "[Example 15]", "values": [{"measurement": "EC50", "setting": "[1]", "result": "< 50", "unit": "nM"}, {"measurement": "EC50", "setting": "[2]", "result": "50 to 200", "unit": "nM"}, {"measurement": "IC50", "setting": "[3]", "result": "< 50", "unit": "nM"}]}, {"smiles": "CCn1nc(C)cc1C(=O)Nc1nc2cc(C(N)=O)cc(OC)c2n1C/C=C/Cn1c(NC(=O)c2cc(C)nn2CC)nc2cc(C(N)=O)cc(OCCCNC(=O)[C@H](CC(=O)O)NC(=O)[C@H](CCCNC(=N)N)NC(=O)[C@H](CC(=O)O)NC(=O)[C@H](CC(=O)O)NC(=O)CCCN3CCc4c(nc(C(=O)Nc5cccc(-c6cccc(NC(=O)c7nc8c(n7C)CCN(CCCC(=O)O)C8)c6Cl)c5Cl)n4C)C3)c21", "note": "[Example 16]", "values": [{"measurement": "EC50", "setting": "[1]", "result": "< 50", "unit": "nM"}, {"measurement": "EC50", "setting": "[2]", "result": "< 50", "unit": "nM"}, {"measurement": "IC50", "setting": "[3]", "result": "< 50", "unit": "nM"}]}, {"smiles": "CCn1nc(C)cc1C(=O)Nc1nc2cc(C(N)=O)cc(OC)c2n1C/C=C/Cn1c(NC(=O)c2cc(C)nn2CC)nc2cc(C(N)=O)cc(OCCCNC(=O)[C@H](CC(=O)O)NC(=O)[C@H](CC(=O)O)NC(=O)[C@H](CC(=O)O)NC(=O)[C@H](CCCNC(=N)N)NC(=O)CCCN3CCc4c(nc(C(=O)Nc5cccc(-c6cccc(NC(=O)c7nc8c(n7C)CCN(CCCC(=O)O)C8)c6Cl)c5Cl)n4C)C3)c21", "note": "[Example 17]", "values": [{"measurement": "EC50", "setting": "[1]", "result": "< 50", "unit": "nM"}, {"measurement": "EC50", "setting": "[2]", "result": "50 to 200", "unit": "nM"}, {"measurement": "IC50", "setting": "[3]", "result": "< 50", "unit": "nM"}]}, {"smiles": "CCn1nc(C)cc1C(=O)Nc1nc2cc(C(N)=O)cc(OC)c2n1C/C=C/Cn1c(NC(=O)c2cc(C)nn2CC)nc2cc(C(N)=O)cc(OCCCNC(=O)[C@H](CC(=O)O)NC(=O)[C@H](CC(=O)O)NC(=O)[C@H](CCCCN)NC(=O)[C@H](CC(=O)O)NC(=O)CCCN3CCc4c(nc(C(=O)Nc5cccc(-c6cccc(NC(=O)c7nc8c(n7C)CCN(CCCC(=O)O)C8)c6Cl)c5Cl)n4C)C3)c21", "note": "[Example 18]", "values": [{"measurement": "EC50", "setting": "[1]", "result": "< 50", "unit": "nM"}, {"measurement": "EC50", "setting": "[2]", "result": "< 50", "unit": "nM"}, {"measurement": "IC50", "setting": "[3]", "result": "< 50", "unit": "nM"}]}]}
